Source: US12102432B2, “Uses of transdermal glomerular filtration rate measurement in continuous renal replacement therapy” (MediBeacon Inc., priority 2018, dated 2024)

Legend:
[1] = In vitro continuous hemodialysis (CVVHD) model, saturation coefficient; format: in vitro ADME, bovine; settings: for Saturation coefficient (mean ± SD): blood flow 200 mL/min
Experimental: For CVVHD experiments, the CLTM was assessed using a previously validated in vitro CVVHD model as illustrated in FIG. 6. Commonly used effluent flow rates of 16, 33, 50, and 100 mL/min, and a blood flow rate of 200 mL/min were used. Effluent was prepared according to directions from the manufacturer by mixing sodium bicarbonate powder (NATURALYTE® 4000, Fresenius Medical Care, Waltham, Mass., USA) with distilled water in a 45:1 ratio. After adding MB-102 and urea to the blood, it was recirculated through the circuit for 5 min for uniform coating of the extracorporeal circuit. A single-pass mode of the CVVHD procedure with four different flow rates was run in random order for each hemodiafilter. Blood samples were collected from the pre- and post-filter ports, and spent effluent samples were taken from the effluent port 5 min after initiation of the CVVHD experiments at all four effluent flow rates. These experiments were conducted on 6 new hemodiafilters and CRRT tubing sets. Saturation coefficient (SA) and CLTM were calculated as follows:
[formula] CLdiff=(SA×Qd) Equation (6)
where SA is the saturation coefficient; CUF is the concentration in the effluent; Ca is the concentration of the solute in the pre-filter; CV is the concentration of the solute in the post-filter; CLdiff is the diffusion clearance for post-filter replacement; Qd is the effluent flow rate.
(§1) All blood samples were collected and centrifuged at 3000 rpm for 10 minutes. The plasma and effluent samples were transferred to cryovials in duplicate and stored at −80° C. until analysis. BUN concentrations were analyzed with Advia 1800 (Siemens Healthcare Diagnostic Inc., Tarrytown, N.Y., USA) having a lower limit of quantification of 5 mg/dL.
(§2) Similarly, six CVVH and CVVHD experiments with each hemodiafilter were used to detect a 25% difference in MB-102 CLTM between hemodiafilters. Assumptions used in these calculations included: a power of 90% and a standard deviation of 10% with a significance level of p<0.05. A two-tailed, unpaired t-test was used to compare differences between the two hemodiafilters, and the analysis of variance was used to compare different QUF and Qd within each hemodiafilter type.

[2] = In vitro continuous hemofiltration (CVVH) model, sieving coefficient; format: in vitro ADME, bovine; settings: for Mean sieving coefficient: CVVH
Experimental: The procedure for the CVVH study was conducted using the model CVVH system illustrated in FIG. 5. The CLTM of urea and MB-102 were evaluated with different blood flow rates, ultrafiltration rate (Quf) and hemodiafilters (Table 1). In a closed-loop system, the formed effluent was returned to the blood as a post-filter replacement fluid downstream from the post-hemodiafilter blood sampling port. Pre- and post-hemodiafilter blood samples, and effluent samples were collected concurrently. Six experiments were conducted for each hemodiafilter, and new hemodiafilters and CRRT apparatus were used for each experiment. Sieving coefficient (SC) and CLTM were calculated as follows:
[formula] where Sc is the sieving coefficient; Cuf is the concentration in the effluent; Ca is the concentration of the solute in the pre-filter; and Cv is the concentration of the solute in the post-filter. CLconv=SC×QUF Equation (4) wherein CLconv is the convective clearance for the post-filter replacement; QUF is the ultrafiltration rate.
as §1, §2

SMILES: Nc1nc(C(=O)N[C@H](CO)C(=O)O)c(N)nc1C(=O)N[C@H](CO)C(=O)O [MB-102, (2R,2′R)-2,2′-((3,6-diaminopyrazine-2,5-dicarbonyl)bis(azanediyl))bis(3-hydroxypropanoic acid)]
- Saturation coefficient (mean ± SD) ([1]; CVVHD, HF1400, Qd 16.7 mL/min): 1.27 ± 0.07
- Saturation coefficient (mean ± SD) ([1]; CVVHD, HF1400, Qd 33.3 mL/min): 1.27 ± 0.09
- Saturation coefficient (mean ± SD) ([1]; CVVHD, HF1400, Qd 50 mL/min): 1.37 ± 0.07
- Saturation coefficient (mean ± SD) ([1]; CVVHD, HF1400, Qd 100 mL/min): 1.02 ± 0.20
- Saturation coefficient (mean ± SD) ([1]; CVVHD, M150, Qd 16.7 mL/min): 1.06 ± 0.17
- Saturation coefficient (mean ± SD) ([1]; CVVHD, M150, Qd 33.3 mL/min): 1.11 ± 0.06
- Saturation coefficient (mean ± SD) ([1]; CVVHD, M150, Qd 50 mL/min): 1.60 ± 0.06
- Saturation coefficient (mean ± SD) ([1]; CVVHD, M150, Qd 100 mL/min): 0.84 ± 0.04
- Saturation coefficient (SA), overall summary in text ([1]; CVVHD, both hemodiafilters): approximately 1
- mean SA values ([1]; low effluent flow rates (16-50 mL/min)): approximately unity
- Mean sieving coefficient ([2]; HF1400, ultrafiltration rate 16.7 mL/min): 1.14 ± 0.06
- Mean sieving coefficient ([2]; HF1400, ultrafiltration rate 33.3 mL/min): 1.17 ± 0.03
- Mean sieving coefficient ([2]; HF1400, ultrafiltration rate 50 mL/min): 1.18 ± 0.05
- Mean sieving coefficient ([2]; M150, ultrafiltration rate 16.7 mL/min): 1.17 ± 0.12
- Mean sieving coefficient ([2]; M150, ultrafiltration rate 33.3 mL/min): 1.17 ± 0.07
- Mean sieving coefficient ([2]; M150, ultrafiltration rate 50 mL/min): 1.16 ± 0.07
- Sieving coefficient (SC) ([2]; three different Quf, both hemodiafilters): approximately 1
